These results are taken from paper PMC5033673 (Cancer research, 2016).

The test has as its target MutSα (MSH2/MSH6 heterodimer) (Homo sapiens, UniProt P43246+P52701). As to the kind of experiment: Biacore SPR. It is filed as binding. On the technique in general: In SPR one partner is held on a chip, and binding of the other changes the refractive index at the surface.

Sequence of MutSα (MSH2/MSH6 heterodimer) (P43246 2-934): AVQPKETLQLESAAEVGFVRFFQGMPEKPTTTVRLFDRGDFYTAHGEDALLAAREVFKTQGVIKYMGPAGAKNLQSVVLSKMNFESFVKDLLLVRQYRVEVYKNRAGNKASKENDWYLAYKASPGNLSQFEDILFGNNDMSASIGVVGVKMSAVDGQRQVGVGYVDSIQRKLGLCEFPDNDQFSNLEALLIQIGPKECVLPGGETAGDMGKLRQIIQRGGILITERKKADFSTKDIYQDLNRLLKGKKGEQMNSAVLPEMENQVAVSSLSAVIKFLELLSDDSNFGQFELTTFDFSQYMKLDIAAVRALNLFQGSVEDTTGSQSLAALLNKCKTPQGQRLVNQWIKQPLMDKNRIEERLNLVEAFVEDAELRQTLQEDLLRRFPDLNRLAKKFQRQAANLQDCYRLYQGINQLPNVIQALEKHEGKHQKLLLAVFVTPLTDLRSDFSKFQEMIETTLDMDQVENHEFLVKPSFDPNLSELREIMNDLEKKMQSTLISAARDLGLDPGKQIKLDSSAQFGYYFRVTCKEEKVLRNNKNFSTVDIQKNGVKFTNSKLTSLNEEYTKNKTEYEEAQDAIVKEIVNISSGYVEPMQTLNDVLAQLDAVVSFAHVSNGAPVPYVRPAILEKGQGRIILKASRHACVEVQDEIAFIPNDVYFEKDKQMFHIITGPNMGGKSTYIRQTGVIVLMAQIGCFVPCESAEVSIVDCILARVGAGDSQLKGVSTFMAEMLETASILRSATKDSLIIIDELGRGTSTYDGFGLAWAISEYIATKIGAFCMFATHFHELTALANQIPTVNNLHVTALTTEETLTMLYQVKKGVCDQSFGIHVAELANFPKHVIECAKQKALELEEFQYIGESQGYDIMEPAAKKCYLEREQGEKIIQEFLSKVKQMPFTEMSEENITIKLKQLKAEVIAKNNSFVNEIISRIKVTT
Sequence of MutSα (MSH2/MSH6 heterodimer) (P52701 whole entry): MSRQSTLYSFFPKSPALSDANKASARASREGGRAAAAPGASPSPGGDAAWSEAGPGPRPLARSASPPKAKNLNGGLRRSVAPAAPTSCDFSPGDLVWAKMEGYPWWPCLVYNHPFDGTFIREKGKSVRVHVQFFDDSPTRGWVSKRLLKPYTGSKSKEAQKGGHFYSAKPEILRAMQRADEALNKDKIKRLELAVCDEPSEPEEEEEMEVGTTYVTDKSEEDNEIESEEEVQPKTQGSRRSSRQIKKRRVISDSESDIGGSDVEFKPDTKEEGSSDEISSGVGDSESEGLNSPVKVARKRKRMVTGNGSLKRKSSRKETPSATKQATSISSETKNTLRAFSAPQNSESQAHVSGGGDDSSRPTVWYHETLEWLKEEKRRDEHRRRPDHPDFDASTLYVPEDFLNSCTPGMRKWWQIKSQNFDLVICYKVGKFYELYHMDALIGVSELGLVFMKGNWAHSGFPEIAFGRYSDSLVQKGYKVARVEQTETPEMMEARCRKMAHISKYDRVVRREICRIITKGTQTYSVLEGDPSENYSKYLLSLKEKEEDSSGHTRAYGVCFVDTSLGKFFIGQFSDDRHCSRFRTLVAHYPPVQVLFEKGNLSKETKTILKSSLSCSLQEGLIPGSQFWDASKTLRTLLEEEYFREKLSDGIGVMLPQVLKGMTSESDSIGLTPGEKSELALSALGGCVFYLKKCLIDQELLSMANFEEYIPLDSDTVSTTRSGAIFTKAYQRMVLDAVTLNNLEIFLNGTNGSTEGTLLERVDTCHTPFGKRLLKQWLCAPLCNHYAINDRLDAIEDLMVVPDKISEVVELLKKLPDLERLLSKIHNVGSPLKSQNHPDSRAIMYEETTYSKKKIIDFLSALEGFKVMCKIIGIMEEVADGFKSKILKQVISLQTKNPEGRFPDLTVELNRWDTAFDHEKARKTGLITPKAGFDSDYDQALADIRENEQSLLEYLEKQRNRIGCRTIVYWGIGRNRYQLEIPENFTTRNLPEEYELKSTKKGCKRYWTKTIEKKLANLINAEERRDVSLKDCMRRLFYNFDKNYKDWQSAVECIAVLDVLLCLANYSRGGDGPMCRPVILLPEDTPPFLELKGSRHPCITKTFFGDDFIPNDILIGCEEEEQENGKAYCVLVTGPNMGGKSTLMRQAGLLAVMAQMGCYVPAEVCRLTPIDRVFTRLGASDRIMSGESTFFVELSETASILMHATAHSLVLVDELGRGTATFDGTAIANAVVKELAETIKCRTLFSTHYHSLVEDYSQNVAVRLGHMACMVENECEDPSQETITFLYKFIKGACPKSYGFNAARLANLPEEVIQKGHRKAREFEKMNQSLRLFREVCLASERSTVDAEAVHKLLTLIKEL

For the molecule `O=c1cc(-c2ccccc2)oc2cc(O)c(O)c(O)c12` [baicalein, 5,6,7-trihydroxyflavone], the Kd (usually a measure of binding affinity in units of concentration) is ~32.2 µM.
